Experiments:
Assay type in all cases: cell-based
[1] = tested on: HCT-116 colorectal cancer cell line; experiment: CCK-8 proliferation inhibition; details: concentration of 30 μM, 72 hours, CCK-8
Outline: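 Proliferation over 72 hours of compound treatment was measured with CCK-8 against a 1‰ DMSO control.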

[2] = tested on: Moraxella catarrhalis (BCA); experiment: MIC, two-fold agar dilution (CLSI), clinical isolates
Outline: (§1)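 Samples are serially diluted two-fold in agar following CLSI guidance. Plates are then inoculated with the tested strains. The lowest inhibiting concentration is recorded as MIC.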

[3] = tested on: Enterococcus faecium (EFM); experiment: as above
Outline: as §1

[4] = tested on: Escherichia coli (including ESBLs, non-ESBLs); experiment: as above
Outline: as §1

[5] = tested on: Enterococcus faecalis (EFA); experiment: as above
Outline: as §1

[6] = tested on: methicillin-resistant Staphylococcus aureus (MRSA); experiment: as above
Outline: as §1

[7] = tested on: methicillin-sensitive Staphylococcus aureus (MSSA); experiment: as above
Outline: as §1

[8] = tested on: Streptococcus pneoumoniae (SPN); experiment: as above
Outline: as §1

[9] = tested on: methicillin-sensitive Staphylococcus epidermidis (MSSE); experiment: as above
Outline: as §1

[10] = tested on: methicillin-resistant Staphylococcus epidermidis (MRSE); experiment: as above
Outline: as §1

[11] = tested on: MGC-803 gastric cancer cell line; experiment: CCK-8 proliferation inhibition; details: Homo sapiens, MGC-803, 72 h, concentration of 30 μM
Description: (§2) 2. The present invention adopts the CCK-8 method to determine the proliferation inhibition effect of the spiro three-membered ring, spiro five-membered ring peptide deformylase inhibitor as described in Examples 1-80 against colorectal cancer cells, lung cancer cells, gastric cancer cells, liver cancer cells, and the like. […] The compound having the best activity synthesized in Example 64 was further tested for its inhibitory activity against other tumor cells including T cell leukemia, acute myeloid leukemia, cervical cancer, breast cancer, prostate cancer and osteosarcoma, and the like (see Table 7).
(§3) (1) HCT-116 colorectal cancer cell line, A549 lung cancer cell line, MGC-803 gastric cancer cell line, BEL-7402 liver cancer cell line, Jurkat T cell leukemia cell line, HL60 acute myeloid leukemia cell line, Hela cervical cancer cell line, MCF-7 breast cancer cell line, PC3 prostate cancer cell line and SAOS-2 osteosarcoma cell line were made into single cell suspension, 180 μL of which was inoculated into 96-well culture plate, which was cultured overnight in CO2 incubator (37° C., 5% CO2, 95% air).
(§4) (2) Each of the spiro three-membered ring, spiro five membered ring peptide deformylase inhibitors was dissolved in DMSO, and was further formulated into drug solution with required different final concentration using corresponding cell culture medium. The drug solutions were added to the above cells respectively (20 μL/well), with the control group added with 1‰ DMSO, and cultured in a CO2 incubator for 72 hours.
(§5) (3) After incubation for 72 hours, the culture solution was decanted, and 100 μL of 1:10 diluted CCK-8 solution was added.
(§6) Wherein, in step (1), the concentration of the single cell suspension was 2000 cells/well.
(§7) Wherein, in step (2), HCT-116 cells were cultured in McCoy's 5A medium (containing 10% newborn bovine serum, 1% double antibody); A549 and PC3 cells were cultured in F12 medium (containing 10% newborn bovine serum, 1% double antibody); MGC-803, BEL-7402, SAOS-2, Jurkat and HL60 cells were cultured in 1640 medium (containing 10% newborn bovine serum, 1% double antibody); and MCF-7 and Hela cells were cultured in DMEM high glucose medium (containing 10% newborn bovine serum, 1% double antibody).

[12] = tested on: A549 lung cancer cell line; experiment: CCK-8 proliferation inhibition; details: concentration of 30 μM
Description: as §2, §3, §4, §5, §6, §7

[13] = tested on: BEL-7402 liver cancer cell line; experiment: CCK-8 proliferation inhibition; details: concentration of 30 μM
Description: as §2, §3, §4, §5, §6, §7

Question: With `CCCC[C@H](CC(=O)NO)C(=O)N1CC2(CCCC2)C[C@H]1C(=O)Nc1ccc(F)cn1` [Example 78, (S)—N-(5-fluoropyridin-2-yl)-2-((R)-2-(2-(hydroxyamino)-2-oxoethyl)hexanoyl)-2-spiro[4.4]nonane-3-carboxamide] as the compound, how does the inhibition at 30 µM ([1]; Homo sapiens, HCT-116, 72 h, read-out: HCT116 inhibition rate/%) read?
Answer: > 50%

Question: What about the HCT116 inhibition rate/% ([1]; 30 µM) of the same compound?
Answer: 52%

Question: And the Anti-bacterial activity (MIC) ([2]; strain BCA 14-1)?
Answer: 0.5 µg/mL

Question: What about the Anti-bacterial activity (MIC) ([2]; strain BCA 14-4) of the same compound?
Answer: 1 µg/mL

Question: What about the Anti-bacterial activity (MIC) ([2]; strain BCA 14-5) of the same compound?
Answer: 1 µg/mL

Question: What about the Anti-bacterial activity (MIC) ([2]; strain BCA 14-6) of the same compound?
Answer: 0.5 µg/mL

Question: And the Anti-bacterial activity (MIC) ([2]; strain BCA 14-7)?
Answer: 0.5 µg/mL

Question: And the Anti-bacterial activity (MIC) ([2]; strain BCA 14-8)?
Answer: 0.25 µg/mL

Question: What about the Anti-bacterial activity (MIC) ([2]; strain BCA 14-10) of the same compound?
Answer: 0.25 µg/mL

Question: And the Anti-bacterial activity (MIC) ([3]; strain EFM 15-1)?
Answer: > 32 µg/mL

Question: What about the Anti-bacterial activity (MIC) ([3]; strain EFM 15-2) of the same compound?
Answer: > 32 µg/mL

Question: And the Anti-bacterial activity (MIC) ([3]; strain EFM 15-3)?
Answer: > 32 µg/mL

Question: What about the Anti-bacterial activity (MIC) ([3]; strain EFM 15-4) of the same compound?
Answer: 2 µg/mL

Question: What about the Anti-bacterial activity (MIC) ([3]; strain EFM 15-5) of the same compound?
Answer: 0.25 µg/mL

Question: What about the Anti-bacterial activity (MIC) ([3]; strain EFM 15-6) of the same compound?
Answer: 1 µg/mL

Question: What about the Anti-bacterial activity (MIC), strain ECO+ 15-1 ([4]; clinical isolate ECO+ 15-1) of the same compound?
Answer: 16 µg/mL

Question: What about the Anti-bacterial activity (MIC), strain ECO+ 15-2 ([4]; clinical isolate ECO+ 15-2) of the same compound?
Answer: > 32 µg/mL

Question: What about the Anti-bacterial activity (MIC), strain ECO+ 15-3 ([4]; clinical isolate ECO+ 15-3) of the same compound?
Answer: > 32 µg/mL

Question: What about the Anti-bacterial activity (MIC), strain ECO+ 15-4 ([4]; clinical isolate ECO+ 15-4) of the same compound?
Answer: > 32 µg/mL

Question: What about the Anti-bacterial activity (MIC), strain ECO− 15-1 ([4]; clinical isolate ECO− 15-1) of the same compound?
Answer: > 32 µg/mL

Question: What about the Anti-bacterial activity (MIC), strain ECO− 15-2 ([4]; clinical isolate ECO− 15-2) of the same compound?
Answer: > 32 µg/mL

Question: And the Anti-bacterial activity (MIC), strain ECO− 15-3 ([4]; clinical isolate ECO− 15-3)?
Answer: > 32 µg/mL

Question: And the Anti-bacterial activity (MIC), strain ECO− 15-4 ([4]; clinical isolate ECO− 15-4)?
Answer: > 32 µg/mL

Question: What about the Anti-bacterial activity (MIC) ([5]; strain EFA 15-1) of the same compound?
Answer: > 32 µg/mL

Question: What about the Anti-bacterial activity (MIC) ([5]; strain EFA 15-2) of the same compound?
Answer: > 32 µg/mL

Question: And the Anti-bacterial activity (MIC) ([5]; strain EFA 15-3)?
Answer: > 32 µg/mL

Question: What about the Anti-bacterial activity (MIC) ([5]; strain EFA 15-4) of the same compound?
Answer: > 32 µg/mL

Question: And the Anti-bacterial activity (MIC) ([5]; strain EFA 15-5)?
Answer: > 32 µg/mL

Question: What about the Anti-bacterial activity (MIC) ([5]; strain EFA 15-6) of the same compound?
Answer: > 32 µg/mL

Question: What about the Anti-bacterial activity (MIC) ([5]; strain EFA 15-9) of the same compound?
Answer: > 32 µg/mL

Question: What about the Anti-bacterial activity (MIC), strain MRSA 15-1 ([6]; clinical isolate MRSA 15-1) of the same compound?
Answer: 0.06 µg/mL

Question: And the Anti-bacterial activity (MIC), strain MRSA 15-2 ([6]; clinical isolate MRSA 15-2)?
Answer: 0.5 µg/mL

Question: What about the Anti-bacterial activity (MIC), strain MRSA 15-3 ([6]; clinical isolate MRSA 15-3) of the same compound?
Answer: 0.125 µg/mL

Question: And the Anti-bacterial activity (MIC), strain MRSA 15-4 ([6]; clinical isolate MRSA 15-4)?
Answer: 0.5 µg/mL

Question: What about the Anti-bacterial activity (MIC), strain MSSA 15-3 ([7]; clinical isolate MSSA 15-3) of the same compound?
Answer: 0.5 µg/mL

Question: What about the Anti-bacterial activity (MIC), strain MSSA 15-4 ([7]; clinical isolate MSSA 15-4) of the same compound?
Answer: 0.125 µg/mL

Question: What about the Anti-bacterial activity (MIC), strain MSSA 15-5 ([7]; clinical isolate MSSA 15-5) of the same compound?
Answer: 0.03 µg/mL

Question: And the Anti-bacterial activity (MIC), strain MSSA 15-6 ([7]; clinical isolate MSSA 15-6)?
Answer: > 32 µg/mL

Question: What about the Anti-bacterial activity (MIC) ([8]; strain SPN 16-2) of the same compound?
Answer: 0.03 µg/mL

Question: What about the Anti-bacterial activity (MIC) ([8]; strain SPN 16-4) of the same compound?
Answer: 0.25 µg/mL

Question: And the Anti-bacterial activity (MIC), strain MSSE 15-3 ([9]; clinical isolate MSSE 15-3)?
Answer: 0.25 µg/mL

Question: What about the Anti-bacterial activity (MIC), strain MSSE 15-4 ([9]; clinical isolate MSSE 15-4) of the same compound?
Answer: 0.25 µg/mL

Question: And the Anti-bacterial activity (MIC), strain MSSE 15-5 ([9]; clinical isolate MSSE 15-5)?
Answer: 0.25 µg/mL

Question: What about the Anti-bacterial activity (MIC), strain MSSE 15-6 ([9]; clinical isolate MSSE 15-6) of the same compound?
Answer: 0.03 µg/mL

Question: What about the Anti-bacterial activity (MIC), strain MRSE 15-1 ([10]; clinical isolate MRSE 15-1) of the same compound?
Answer: 0.125 µg/mL

Question: And the Anti-bacterial activity (MIC), strain MRSE 15-2 ([10]; clinical isolate MRSE 15-2)?
Answer: 1 µg/mL

Question: What about the Anti-bacterial activity (MIC), strain MRSE 15-3 ([10]; clinical isolate MRSE 15-3) of the same compound?
Answer: 1 µg/mL

Question: And the Anti-bacterial activity (MIC), strain MRSE 15-7 ([10]; clinical isolate MRSE 15-7)?
Answer: 1 µg/mL

Question: What about the inhibition at 30 µM [11] of the same compound?
Answer: 44%

Question: And the inhibition at 30 µM ([12]; Homo sapiens, A549, 72 h)?
Answer: > 50%

Question: And the “Inhibition of proliferation, Lung cancer A549” value ([12]; 72 hours, 30 µM)?
Answer: 54%

Question: What about the inhibition at 30 µM ([13]; Homo sapiens, Bel-7402, 72 h) of the same compound?
Answer: > 50%

Question: And the “Inhibition of proliferation, Liver cancer BEL-7402” value ([13]; 72 hours, 30 µM)?
Answer: 67%

— patent US10738028B2, “Spiro three-membered ring, spiro five-membered ring peptide deformylase inhibitor and use thereof in antibacteria and anti-tumor” (priority 2016, dated 2020)
